Measured values: US20260356851A1, “TRICYCLIC COMPOUNDS AND USES THEREOF” (HUTCHMED LIMITED, priority 2023, published 2026)

Tests used:
Assay type in all cases: cell-based
[1] = target: T1, pERK1/2 (Thr202/Tyr204), NCI-1H441 (KRAS G12V) (Homo sapiens, UniProt P01116, G12V); experiment: Assay of intracellular pERK1/2 (Thr202/Tyr204) phosphorylation in NCI-H441 cells (KRAS G12V); conditions: pERK1/2, 2 days, read-out: NCI-H441 (KRAS G12V) IC50
T1 construct: pERK1/2 HTRF read-out
Method in brief: (§1)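 HTRF detection of Thr202/Tyr204-phosphorylated ERK1/2 (665/615 nm ratio) in lysates from cells treated 2 days with serially 3-fold diluted compound.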

[2] = target: T2, pERK1/2 (Thr202/Tyr204), NCI-1H358 (KRAS G12C) (Homo sapiens, UniProt P01116, G12C); experiment: Assay of intracellular pERK1/2 (Thr202/Tyr204) phosphorylation in NCI-H358 cells (KRAS G12C); conditions: pERK1/2, 2 days, read-out: NCI-H358 (KRAS G12C) IC50
T2 construct: pERK1/2 HTRF read-out
T2 sequence (P01116 1-188 isoform P01116-2 G12C): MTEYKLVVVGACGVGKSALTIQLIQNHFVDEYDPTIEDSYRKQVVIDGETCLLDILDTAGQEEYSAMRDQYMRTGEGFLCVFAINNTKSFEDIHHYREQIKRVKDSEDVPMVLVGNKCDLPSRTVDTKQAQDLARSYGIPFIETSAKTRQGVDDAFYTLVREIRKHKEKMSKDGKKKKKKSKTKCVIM
Method in brief: as §1

[3] = target: T3, pERK1/2 (Thr202/Tyr204), PANC-1 (KRAS G121D) (Homo sapiens, UniProt P01116, G12D); experiment: Assay of intracellular pERK1/2 (Thr202/Tyr204) phosphorylation in PANC-1 cells (KRAS G12D); conditions: pERK1/2, 2 days, read-out: PANC-1 (KRAS G12D) IC50
T3 construct: pERK1/2 HTRF read-out
T3 sequence (P01116 1-188 isoform P01116-2 G12D): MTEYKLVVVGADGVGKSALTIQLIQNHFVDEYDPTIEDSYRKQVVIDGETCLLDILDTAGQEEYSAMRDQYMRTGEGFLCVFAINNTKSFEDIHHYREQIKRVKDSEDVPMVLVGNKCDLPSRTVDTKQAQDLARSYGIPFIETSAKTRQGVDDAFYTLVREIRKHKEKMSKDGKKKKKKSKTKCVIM
Method in brief: as §1

T1 sequence (P01116 1-188 isoform P01116-2 G12V): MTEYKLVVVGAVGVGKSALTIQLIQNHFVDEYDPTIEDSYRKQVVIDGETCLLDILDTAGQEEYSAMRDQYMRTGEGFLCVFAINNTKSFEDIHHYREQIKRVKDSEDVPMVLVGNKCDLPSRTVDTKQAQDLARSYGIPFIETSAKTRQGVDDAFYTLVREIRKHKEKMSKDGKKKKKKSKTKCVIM

SMILES	IC50 [1] [nM]	IC50 [2] [nM]	IC50 [3] [nM]
Cc1c(F)c(N)cc(-c2nc3c4c(nc(OCC56CC(F)CN5CC(F)C6)nc4c2F)N(C(C)c2cccnc2N)CCO3)c1C(F)(F)F (single isomer, unassigned; diastereomer 2) [Compound 242, (*)3-(1-(5-(5-amino-4-fluoro-3-methyl-2-(trifluoromethyl)phenyl)-2-(((2R or 2S,6R or 6S)-2,6-difluorotetrahydro-1H-pyrrolizin-7a(5H)-yl)methoxy)-4-fluoro-8,9-dihydro-10H-7-oxa-1,3,6,10-tetraazacyclohepta[de]naphthalen-10-yl)ethyl)pyridin-2-amine (diastereomer 2)]	3	0.4	> 100
[2H]C1([2H])CC[C@@]2(COc3nc4c5c(nc(-c6cc(N)c(F)c(Cl)c6C(F)(F)F)c(F)c5n3)OC([2H])([2H])C([2H])([2H])N4[C@H](C)c3cccnc3N)C[C@@H](F)CN12 (single isomer, unassigned) [Compound 222, 3-((R or S)-1-(5-(5-amino-3-chloro-4-fluoro-2-(trifluoromethyl)phenyl)-4-fluoro-2-(((2R,7aS)-2-fluorotetrahydro-1H-pyrrolizin-7a(5H)-yl-5,5-d2)methoxy)-8,9-dihydro-10H-7-oxa-1,3,6,10-tetraazacyclohepta[de]naphthalen-10-yl-8,8,9,9-d4)ethyl)pyridin-2-amine]	0.4	0.1	2
CC(c1cccnc1N)N1c2nc(OC[C@@]34CCCN3C[C@H](F)C4)nc3c(F)c(-c4cc(O)cc(Cl)c4C#N)nc(c23)OC[C@@H]1C (stereo partly drawn) [Compound 322]	97	21	> 100
CC(c1cccnc1N)N1CCOc2nc(-c3cc(O)cc4ccc(F)c(F)c34)c(F)c3ncnc1c23 (single isomer, unassigned) [Compound 29, (R or S)-4-(10-(1-(2-aminopyridin-3-yl)ethyl)-4-fluoro-9,10-dihydro-8H-7-oxa-1,3,6,10-tetraazacyclohepta[de]naphthalen-5-yl)-5,6-difluoronaphthalen-2-ol]	> 1000	> 1000	> 1000
Cc1c(F)c(N)cc(-c2nc3c4c(nc(OC[C@@]56CCCN5C[C@H](F)C6)nc4c2F)N(C(C)c2cccnc2N)C[C@@H](C)O3)c1C(F)(F)F (single isomer, unassigned) [Compound 247, 3-((R or S)-1-((R)-5-(5-amino-4-fluoro-3-methyl-2-(trifluoromethyl)phenyl)-4-fluoro-2-(((2R,7aS)-2-fluorotetrahydro-1H-pyrrolizin-7a(5H)-yl)methoxy)-8-methyl-8,9-dihydro-10H-7-oxa-1,3,6,10-tetraazacyclohepta[de]naphthalen-10-yl)ethyl)pyridin-2-amine]	> 100	> 100	> 100
CC(c1cccnc1N)N1c2nc(OC[C@@]34CCCN3C[C@H](F)C4)nc3c(F)c(-c4cccc5nc(N)nn45)nc(c23)OC[C@@H]1C (stereo partly drawn) [Compound 335]	> 100	> 100	> 100
CC(c1cc(F)cnc1N)N1c2nc(OC[C@@]34CCCN3C[C@H](F)C4)nc3c(F)c(-c4c5cn[nH]c5cc5cccc(F)c45)nc(c23)OC[C@@H]1C (stereo partly drawn) [Compound 367]	0.4	0.2	1
Cc1cc(N)cc(-c2nc3c4c(nc(OC[C@@]56CCCN5C[C@H](F)C6)nc4c2F)N(C(C)c2cccnn2)CCO3)c1C(F)(F)F (single isomer, unassigned) [Compound 127, 3-(4-fluoro-2-(((2R,7aS)-2-fluorotetrahydro-1H-pyrrolizin-7a(5H)-yl)methoxy)-10-((R or S)-1-(pyridazin-3-yl)ethyl)-9,10-dihydro-8H-7-oxa-1,3,6,10-tetraazacyclohepta[de]naphthalen-5-yl)-5-methyl-4-(trifluoromethyl)aniline]	> 100	> 100	> 100
Cc1cc(N)cc(-c2nc3c4c(nc(OCC5(CN(C)C)CC5)nc4c2F)N(C(C)c2cccnc2N)CCO3)c1C(F)(F)F (stereo not drawn) [Compound 69]	10	3	95
Cc1cc(N)nc(-c2nc3c4c(nc(OC[C@@]56CCCN5C[C@H](F)C6)nc4c2F)N(C(C)c2cccnc2N)[C@@H](C)CO3)c1 (stereo partly drawn) [Compound 329]	> 100	> 100	> 100
Cc1cc(N)cc(-c2nc3c4c(nc(OC[C@]56CCCN5[C@@H](CO)CC6)nc4c2F)N(C(C)c2cccnc2N)CCO3)c1C(F)(F)F (single isomer, unassigned) [Compound 101, ((3R,7aR)-7a-(((5-(5-amino-3-methyl-2-(trifluoromethyl)phenyl)-10-((R or S)-1-(2-aminopyridin-3-yl)ethyl)-4-fluoro-9,10-dihydro-8H-7-oxa-1,3,6,10-tetraazacyclohepta[de]naphthalen-2-yl)oxy)methyl)hexahydro-1H-pyrrolizin-3-yl)methanol]	> 100	> 100	> 100
[2H]C1([2H])CN(C(C)c2cccnc2N)c2nc(OC[C@@]34CCCN3C[C@H](F)C4)nc3c(F)c(-c4cc(N)cc(C)c4C(F)(F)F)nc(c23)O1 (single isomer, unassigned) [Compound 153, 3-((R or S)-1-(5-(5-amino-3-methyl-2-(trifluoromethyl)phenyl)-4-fluoro-2-(((2R,7aS)-2-fluorotetrahydro-1H-pyrrolizin-7a(5H)-yl)methoxy)-8,9-dihydro-10H-7-oxa-1,3,6,10-tetraazacyclohepta[de]naphthalen-10-yl-8,8-d2)ethyl)pyridin-2-amine]	0.5	0.2	2
CC(c1cccnc1N)N1CCOc2nc(-c3cc(O)cc4ccc(F)c(F)c34)c(F)c3nc(OC[C@@H]4CCCN4C)nc1c23 (single isomer, unassigned) [Compound 41, 4-(10-((R or S)-1-(2-aminopyridin-3-yl)ethyl)-4-fluoro-2-(((S)-1-methylpyrrolidin-2-yl)methoxy)-9,10-dihydro-8H-7-oxa-1,3,6,10-tetraazacyclohepta[de]naphthalen-5-yl)-5,6-difluoronaphthalen-2-ol]	820	223	> 1000
[2H]C([2H])([2H])N1CCC[C@H]1COc1nc2c3c(nc(-c4cc(N)cc(Cl)c4C(F)(F)F)c(F)c3n1)OCCN2C(C)c1cccnc1N (stereo partly drawn) [Compound 111]	1	1	21
Cc1c(F)c(N)cc(-c2nc3c4c(nc(OC[C@@]56CCCN5C[C@H](F)C6)nc4c2F)N(C(C)c2cc(F)cnc2N)CCO3)c1C(F)(F)F (stereo partly drawn) [Compound 177]	2	0.7	11
CC(c1cccnc1N)N1CCOc2nc(-c3cc(N)c(F)c(Cl)c3C(F)(F)F)c(F)c3nc(OC[C@@]45CCCN4CC4(CC4(F)F)C5)nc1c23 (single isomer, unassigned) [Compound 227]	0.6	0.2	2
CC(c1cccnc1N)N1CCOc2nc(-c3cc(O)cc4ccc(F)c(F)c34)c(F)c3nc(OC[C@@H]4CC(F)(F)CN4C)nc1c23 (stereo partly drawn) [Compound 46]	5	4	287
